The results in this text go back to PMC9841576, “Characterisation of C101248: A novel selective THIK-1 channel inhibitor for the modulation of microglial NLRP3-inflammasome” (Neuropharmacology, 2023).

Where two headings read alike, the source gives them in different places.

In one data set the target is T1, mouse THIK-1 (Mus musculus, UniProt Q8R1P5).
T1 construct: expressed in transfected cells
T1 sequence (Q8R1P5 1-405): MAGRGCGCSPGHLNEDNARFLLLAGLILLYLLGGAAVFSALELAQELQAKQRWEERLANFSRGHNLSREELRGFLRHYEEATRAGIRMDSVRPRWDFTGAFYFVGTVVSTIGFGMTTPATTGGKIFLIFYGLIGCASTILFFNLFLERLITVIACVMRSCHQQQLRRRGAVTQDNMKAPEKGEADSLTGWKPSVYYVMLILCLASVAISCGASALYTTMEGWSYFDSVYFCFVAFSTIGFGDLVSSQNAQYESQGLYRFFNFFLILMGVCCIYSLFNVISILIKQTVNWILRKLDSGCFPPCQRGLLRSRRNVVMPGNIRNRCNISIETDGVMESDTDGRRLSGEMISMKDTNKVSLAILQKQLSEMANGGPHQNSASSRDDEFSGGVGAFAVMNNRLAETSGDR
Nature of the data set: FLIPR thallium influx assay, HEK-mTHIK-1 cells. The format is cell-based. As to the method:
HEK-293 cells were transfected with human THIK-1, TREK-1, TWIK-2, or mouse THIK-1 cDNA cloned into pcDNA3.1, using either Fugene HD transfection reagent (Promega) or electroporation (MaxCyte STX instrument). Cells stably expressing the relevant genes were selected based on resistance to 500 μg/ml geneticin (Gibco). For human THIK-1 and TWIK-2 expressing cells, monoclonal lines were isolated by limited dilution cloning; mouse THIK-1 and human TREK-1 expressing cells were maintained as polyclonal pools. The HEK-293 pools and monoclones stably expressing the relevant genes were maintained in DMEM (Life Technologies), supplemented with 10% FCIII (HyClone, Fetal clone III) and 500 μg/ml geneticin. A CHO-Kv2.1 cell line was purchased from Millipore (accession NM_004975) and maintained in F12 (Life Technologies), supplemented with 10% FCSIII (Thermo Scientific) and 500 μg/ml geneticin (Life Technologies). For thallium flux assays, banks of frozen cell aliquots were prepared the day prior to assay, cells were thawed into media and seeded into PDL coated 384-well plates (Corning) at 25,000 (human/mouse THIK-1, TREK-1) or 30,000 (TWIK-2) cells/well (25 μl/well). CHO-Kv2.1 cells were seeded into non-PDL coated plates (Corning) at 5000 cells/well. Plated cells were incubated overnight at 37 °C, 5% CO2 in a humidified atmosphere. For Q-Patch assays, cells were cultured for 7 days prior to assay, dissociated, and diluted to 1–2.5 million/ml in EX-CELL ACF serum free media containing HEPES (25 mM; Life Technologies), penicillin/streptomycin (100 U/ml, 100 μg/ml; Life Technologies) and a trypsin inhibitor (0.04 mg/ml).
(§1) A fluorescence-based thallium influx assay (Molecular Devices potassium assay kit) was used to monitor channel activity. […] Using a fluorescent imaging plate reader (FLIPR) tetra plate reader, 15 μl thallium stimulus solution was added to the cell plate and the fluorescence signal recorded every second for 1 min (excitation: 470–495 nm, emission: 515–575 nm).

In a further data set the target is T2, TWIK-2 (Homo sapiens, UniProt Q9Y257).
T2 construct: expressed in transfected cells
T2 sequence (Q9Y257 whole entry): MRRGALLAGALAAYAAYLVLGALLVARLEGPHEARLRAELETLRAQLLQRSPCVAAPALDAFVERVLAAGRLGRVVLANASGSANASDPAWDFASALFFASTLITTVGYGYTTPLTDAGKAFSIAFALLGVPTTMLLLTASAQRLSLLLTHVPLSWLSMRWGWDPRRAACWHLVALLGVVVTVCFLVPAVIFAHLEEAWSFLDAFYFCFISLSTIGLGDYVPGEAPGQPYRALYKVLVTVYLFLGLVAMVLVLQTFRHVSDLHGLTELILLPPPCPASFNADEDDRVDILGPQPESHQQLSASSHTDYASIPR
The data set is described as follows: FLIPR thallium influx assay, HEK-hTWIK-2 cells. The format is cell-based. The settings on record: HEK-hTWIK-2, at 30 μM, compared to TPA controls; read-out: inhibition of constitutive activity. The procedure:
HEK-293 cells were transfected with human THIK-1, TREK-1, TWIK-2, or mouse THIK-1 cDNA cloned into pcDNA3.1, using either Fugene HD transfection reagent (Promega) or electroporation (MaxCyte STX instrument). Cells stably expressing the relevant genes were selected based on resistance to 500 μg/ml geneticin (Gibco). For human THIK-1 and TWIK-2 expressing cells, monoclonal lines were isolated by limited dilution cloning; mouse THIK-1 and human TREK-1 expressing cells were maintained as polyclonal pools. The HEK-293 pools and monoclones stably expressing the relevant genes were maintained in DMEM (Life Technologies), supplemented with 10% FCIII (HyClone, Fetal clone III) and 500 μg/ml geneticin. A CHO-Kv2.1 cell line was purchased from Millipore (accession NM_004975) and maintained in F12 (Life Technologies), supplemented with 10% FCSIII (Thermo Scientific) and 500 μg/ml geneticin (Life Technologies). […]
as §1

The next data set in a line: CNS PK study in rats. The format is in vivo. The settings on record: Sprague Dawley, rat, brain (unbound) / plasma (unbound), 10 or 30 mg/kg oral, 1, 2 or 4 h post dose, read-out: Kpu,u. As to the method:
In CNS PK studies, rodents (C57BL/6 mice or Sprague Dawley rats) were administered C101248 by oral gavage at 10 or 30 mg/kg. At specified timepoints post dose (0.5, 1, 2 or 4 h), blood samples were collected and processed to plasma (centrifugation at 5000 rpm, 4 °C for 10 min). Immediately following blood withdrawal, cerebrospinal fluid (CSF) samples were collected from the cisterna magna, whole body perfusion was conducted, and brain samples were collected and weighed. Samples were stored frozen at −80 ± 10 °C until analysis. Plasma, CSF, and brain samples were analysed using a fit for purpose bioanalytical method (LC-MS/MS) against a calibration curve containing QC samples. Brain:plasma and CSF:plasma were calculated based on brain concentration/plasma concentration at the same timepoint. Unbound partition coefficient (Kpu,u) values were calculated based on unbound brain concentration/unbound plasma concentration at the same timepoint. Unbound concentrations were derived by adjusting plasma concentrations for the fraction unbound in plasma based on in vitro plasma protein binging (PPB) values and brain concentrations for the unbound fraction in brain tissue based on in vitro brain tissue binding (BTB) values.

Another data set deals with ROCK-2 (h) (Homo sapiens, UniProt O75116). Nature of the data set: Kinase selectivity. The format is biochemical. An excerpt:
(§2) Supplement mmc1.docx, table 1 | column: IC50 (μM)

Another data set addresses p70S6K (h) (Homo sapiens, UniProt P23443). The data set is described as follows: Kinase selectivity. The class given is biochemical.
Source text: as §2

For another data set, the target named is ROCK-1 (h) (Homo sapiens, UniProt Q13464). Nature of the data set: Kinase selectivity. The class given is biochemical.
Sequence of ROCK-1 (h) (Q13464 whole entry): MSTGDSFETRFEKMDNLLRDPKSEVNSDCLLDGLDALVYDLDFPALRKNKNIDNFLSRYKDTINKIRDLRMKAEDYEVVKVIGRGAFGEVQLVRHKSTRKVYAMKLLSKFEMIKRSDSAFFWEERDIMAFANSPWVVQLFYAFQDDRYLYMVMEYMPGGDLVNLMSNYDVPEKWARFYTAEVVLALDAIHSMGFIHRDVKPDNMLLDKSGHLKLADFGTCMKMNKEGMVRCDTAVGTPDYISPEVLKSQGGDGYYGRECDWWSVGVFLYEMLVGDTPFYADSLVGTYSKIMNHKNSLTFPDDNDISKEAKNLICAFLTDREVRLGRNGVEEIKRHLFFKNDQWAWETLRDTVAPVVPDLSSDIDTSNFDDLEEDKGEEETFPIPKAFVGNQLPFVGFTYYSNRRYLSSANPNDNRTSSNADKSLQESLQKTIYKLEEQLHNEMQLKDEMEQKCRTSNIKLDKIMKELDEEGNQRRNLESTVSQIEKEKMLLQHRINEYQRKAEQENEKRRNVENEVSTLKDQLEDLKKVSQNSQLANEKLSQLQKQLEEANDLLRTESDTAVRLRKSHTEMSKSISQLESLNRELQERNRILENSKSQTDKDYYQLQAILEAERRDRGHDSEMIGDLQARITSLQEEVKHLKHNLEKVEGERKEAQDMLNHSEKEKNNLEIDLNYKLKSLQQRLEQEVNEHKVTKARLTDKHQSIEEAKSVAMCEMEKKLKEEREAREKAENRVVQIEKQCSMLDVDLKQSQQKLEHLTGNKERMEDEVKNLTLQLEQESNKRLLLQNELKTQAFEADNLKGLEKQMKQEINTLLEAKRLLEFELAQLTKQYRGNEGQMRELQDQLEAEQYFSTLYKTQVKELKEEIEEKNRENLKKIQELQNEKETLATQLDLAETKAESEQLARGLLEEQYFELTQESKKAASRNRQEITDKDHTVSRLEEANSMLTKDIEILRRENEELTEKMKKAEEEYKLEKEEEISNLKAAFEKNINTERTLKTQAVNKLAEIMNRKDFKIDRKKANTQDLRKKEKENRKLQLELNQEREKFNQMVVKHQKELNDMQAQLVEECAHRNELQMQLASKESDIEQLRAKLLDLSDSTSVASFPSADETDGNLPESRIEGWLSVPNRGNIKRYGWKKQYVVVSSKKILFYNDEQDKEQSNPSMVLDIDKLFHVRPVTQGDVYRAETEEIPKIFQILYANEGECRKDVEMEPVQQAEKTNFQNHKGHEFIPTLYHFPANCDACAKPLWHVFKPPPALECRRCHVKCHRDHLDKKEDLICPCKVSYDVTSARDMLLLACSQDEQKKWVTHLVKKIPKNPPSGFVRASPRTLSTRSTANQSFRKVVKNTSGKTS
Source text: as §2

Another data set addresses GSK3β (h) (Homo sapiens, UniProt P49841). The data set is described as follows: Kinase selectivity. The format is biochemical.
Source text: as §2

Another data set addresses Lck (h) (Homo sapiens, UniProt P06239). The data set is described as follows: Kinase selectivity. The class given is biochemical.
Source text: as §2

Sequence of p70S6K (h) (P23443 whole entry): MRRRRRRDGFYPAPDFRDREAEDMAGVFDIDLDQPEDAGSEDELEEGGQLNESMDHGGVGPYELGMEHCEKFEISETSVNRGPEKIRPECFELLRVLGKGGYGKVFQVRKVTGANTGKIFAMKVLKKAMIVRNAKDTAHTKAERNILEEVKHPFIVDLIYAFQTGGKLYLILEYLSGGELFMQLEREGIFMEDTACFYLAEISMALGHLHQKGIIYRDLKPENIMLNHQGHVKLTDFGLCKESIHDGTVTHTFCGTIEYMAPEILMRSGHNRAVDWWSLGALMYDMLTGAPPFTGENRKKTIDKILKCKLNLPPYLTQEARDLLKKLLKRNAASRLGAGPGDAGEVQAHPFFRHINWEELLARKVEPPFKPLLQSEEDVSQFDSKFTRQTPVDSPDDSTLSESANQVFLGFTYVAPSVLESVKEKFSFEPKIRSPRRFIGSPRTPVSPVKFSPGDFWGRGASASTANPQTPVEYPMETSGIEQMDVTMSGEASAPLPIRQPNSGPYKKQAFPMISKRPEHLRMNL
Sequence of ROCK-2 (h) (O75116 whole entry): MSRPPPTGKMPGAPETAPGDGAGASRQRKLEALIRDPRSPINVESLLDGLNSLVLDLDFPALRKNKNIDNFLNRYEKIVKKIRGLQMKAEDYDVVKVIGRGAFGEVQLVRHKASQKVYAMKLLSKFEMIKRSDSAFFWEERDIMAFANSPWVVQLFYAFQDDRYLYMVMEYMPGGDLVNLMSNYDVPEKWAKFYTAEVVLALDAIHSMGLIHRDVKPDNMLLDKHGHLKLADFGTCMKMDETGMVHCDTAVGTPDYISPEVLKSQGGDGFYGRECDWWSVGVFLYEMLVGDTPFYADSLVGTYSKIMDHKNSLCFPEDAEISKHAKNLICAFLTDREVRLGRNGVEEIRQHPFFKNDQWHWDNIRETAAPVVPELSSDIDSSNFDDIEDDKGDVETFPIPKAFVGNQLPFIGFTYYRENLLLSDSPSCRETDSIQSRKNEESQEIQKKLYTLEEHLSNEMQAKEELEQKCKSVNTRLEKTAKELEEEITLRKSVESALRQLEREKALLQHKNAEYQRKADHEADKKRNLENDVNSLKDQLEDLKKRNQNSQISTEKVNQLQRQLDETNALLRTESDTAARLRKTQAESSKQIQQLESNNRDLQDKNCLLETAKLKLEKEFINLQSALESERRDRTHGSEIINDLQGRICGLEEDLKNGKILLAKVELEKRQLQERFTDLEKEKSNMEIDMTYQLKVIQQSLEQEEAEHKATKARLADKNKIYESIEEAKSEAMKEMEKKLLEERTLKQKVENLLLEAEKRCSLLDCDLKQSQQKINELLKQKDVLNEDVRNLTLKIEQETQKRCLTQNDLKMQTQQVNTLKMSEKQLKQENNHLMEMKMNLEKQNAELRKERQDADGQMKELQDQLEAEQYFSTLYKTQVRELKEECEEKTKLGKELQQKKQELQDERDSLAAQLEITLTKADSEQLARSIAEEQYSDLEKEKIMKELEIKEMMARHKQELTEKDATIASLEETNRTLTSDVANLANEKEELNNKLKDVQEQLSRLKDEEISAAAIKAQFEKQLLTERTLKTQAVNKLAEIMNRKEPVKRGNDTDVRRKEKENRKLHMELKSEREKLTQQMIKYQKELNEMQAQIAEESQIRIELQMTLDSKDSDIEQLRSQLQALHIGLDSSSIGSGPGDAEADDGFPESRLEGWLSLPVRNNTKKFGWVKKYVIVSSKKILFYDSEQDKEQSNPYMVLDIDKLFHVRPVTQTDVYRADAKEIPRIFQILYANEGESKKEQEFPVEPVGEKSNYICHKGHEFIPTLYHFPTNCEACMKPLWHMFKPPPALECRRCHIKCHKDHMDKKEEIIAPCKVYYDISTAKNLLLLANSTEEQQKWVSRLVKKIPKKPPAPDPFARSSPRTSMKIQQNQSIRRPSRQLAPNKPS
Sequence of Lck (h) (P06239 whole entry): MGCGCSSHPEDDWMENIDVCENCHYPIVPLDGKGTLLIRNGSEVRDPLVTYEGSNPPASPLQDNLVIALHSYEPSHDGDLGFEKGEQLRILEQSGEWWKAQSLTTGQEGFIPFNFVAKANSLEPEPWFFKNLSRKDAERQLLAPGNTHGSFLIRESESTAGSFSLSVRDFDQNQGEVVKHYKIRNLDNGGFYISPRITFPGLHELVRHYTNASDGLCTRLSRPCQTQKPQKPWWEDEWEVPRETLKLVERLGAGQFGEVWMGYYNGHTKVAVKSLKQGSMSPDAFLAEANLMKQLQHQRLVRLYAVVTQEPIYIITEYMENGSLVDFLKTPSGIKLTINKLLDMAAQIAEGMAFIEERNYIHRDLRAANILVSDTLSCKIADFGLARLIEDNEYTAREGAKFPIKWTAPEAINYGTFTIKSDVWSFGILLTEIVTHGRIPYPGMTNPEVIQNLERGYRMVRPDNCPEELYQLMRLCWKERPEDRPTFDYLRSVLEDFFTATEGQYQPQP
Sequence of GSK3β (h) (P49841 whole entry): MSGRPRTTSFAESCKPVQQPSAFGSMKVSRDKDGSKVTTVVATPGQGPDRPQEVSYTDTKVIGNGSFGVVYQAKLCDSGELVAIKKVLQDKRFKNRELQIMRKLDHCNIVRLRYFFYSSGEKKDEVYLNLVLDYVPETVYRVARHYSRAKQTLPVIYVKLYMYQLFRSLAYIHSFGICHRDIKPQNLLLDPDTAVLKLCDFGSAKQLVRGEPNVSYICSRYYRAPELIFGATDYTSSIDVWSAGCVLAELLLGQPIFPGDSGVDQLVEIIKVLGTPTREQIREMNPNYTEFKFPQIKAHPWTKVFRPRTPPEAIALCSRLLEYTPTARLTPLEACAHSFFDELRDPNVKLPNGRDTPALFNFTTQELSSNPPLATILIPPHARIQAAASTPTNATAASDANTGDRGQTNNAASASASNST

As for `Nc1nonc1-c1nc2ccccc2n1Cc1ccncc1` [C101248], the 50% inhibitory concentration (IC50) – broadly, the point on the concentration scale where inhibition reaches its midpoint – on mouse THIK-1 (HEK-mTHIK-1, normalised to TPA controls, read-out: IC50, mouse THIK-1 (thallium influx)) was 0.049 µM; on mouse THIK-1 (mouse THIK-1, read-out: IC50, inhibition of mouse THIK-1 (abstract)), about 0.05 µM; against ROCK-2 (h) it was over 10 µM; on p70S6K (h), over 10 µM; against ROCK-1 (h) it was over 10 µM; against GSK3β (h), over 10 µM. The compound further registered an IC50 against Lck (h) of over 10 µM. At mouse THIK-1 (HEK-mTHIK-1, thallium influx), this compound yielded a maximum inhibition of 100%. The inhibition (as a rule, the share of the control response that was lost under treatment) at 30 µM at TWIK-2 amounted to 7%. For the same compound, the Kp in the data set “CNS PK study in rats” lay in the range of 0.55 to 0.95.
